In patent US10617706B2, “Compounds for cancer chemotherapeutic sensitization” (Regents of the University of Minnesota, priority 2018, dated 2020):

Target: hTdp2 (Rec) (Homo sapiens (Human), UniProt O95551)
Assay: SUMO hTDP2cat fluorescence-based biochemical assay
Settings: not given
Protocol: Biochemical Potency. The enzymatic activity of TDP2 was measured with a SUMO hTDP2cat fluorescence-based biochemical assay. […] After a pre-incubation period of 10 minutes, 5 μL of substrate 5′-(6-FAM-NHS)(5′-tyrosine)GATCT(3′-BHQ-1)-3′ (1 μM, final concentration of 0.25 μM) was added, and the reaction was allowed to proceed at 25° C. for 60 minutes. The fluorescence was measured, and the data was processed as described previously for 14M_zTDP2.

hTdp2 (Rec), sequence (O95551 113-362): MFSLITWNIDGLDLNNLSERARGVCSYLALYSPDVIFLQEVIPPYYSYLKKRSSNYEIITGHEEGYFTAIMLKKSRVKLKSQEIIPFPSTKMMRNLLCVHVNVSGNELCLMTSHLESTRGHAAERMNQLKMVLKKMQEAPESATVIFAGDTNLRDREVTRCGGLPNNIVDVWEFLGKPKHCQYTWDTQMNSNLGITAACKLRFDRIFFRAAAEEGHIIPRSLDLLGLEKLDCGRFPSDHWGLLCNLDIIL

SMILES | IC50
N#Cc1ccc2cc3c(=O)n(-c4cccc(NP(=O)(Oc5ccccc5)Oc5ccccc5)c4)c(=O)nc-3n(-c3ccc(O)cc3)c2c1 [Example 134, Diphenyl-(3-(8-cyano-10-(4-hydroxyphenyl)-2,4-dioxo-4,10-dihydropyrimido[4,5-b]quinolin-3(2H)-yl)phenyl)phosphoramidate] | 0.277 ± 0.011 µM
N#Cc1ccc2cc3c(=O)n(-c4ccc(NP(=O)(Oc5ccccc5)Oc5ccccc5)cc4)c(=O)nc-3n(-c3ccc(O)cc3)c2c1 [Example 135, Diphenyl-(4-(8-cyano-10-(4-hydroxyphenyl)-2,4-dioxo-4,10-dihydropyrimido[4,5-b]quinolin-3(2H)-yl)phenyl)phosphoramidate] | 0.185 ± 0.009 µM
N#Cc1ccc2cc3c(=O)n(-c4ccc(CNP(=O)(Oc5ccccc5)Oc5ccccc5)cc4)c(=O)nc-3n(-c3ccc(O)cc3)c2c1 [Example 136, Diphenyl-(4-(8-cyano-10-(4-hydroxyphenyl)-2,4-dioxo-4,10-dihydropyrimido[4,5-b]quinolin-3(2H)-yl)benzyl)phosphoramidate] | 0.119 ± 0.003 µM
N#Cc1ccc2cc3c(=O)n(-c4ccc(NC(=O)Oc5ccccc5)cc4)c(=O)nc-3n(-c3ccc(O)cc3)c2c1 [Example 133, Phenyl-(4-(8-cyano-10-(4-hydroxyphenyl)-2,4-dioxo-4,10-dihydropyrimido[4,5-b]quinolin-3(2H)-yl)phenyl)carbamate] | 0.059 ± 0.004 µM
N#Cc1ccc2cc3c(=O)n(-c4cccc(NC(=O)Oc5ccccc5)c4)c(=O)nc-3n(-c3ccc(O)cc3)c2c1 [Example 132, Phenyl-(3-(8-cyano-10-(4-hydroxyphenyl)-2,4-dioxo-4,10-dihydropyrimido[4,5-b]quinolin-3(2H)-yl)phenyl)carbamate] | 0.119 ± 0.004 µM
N#Cc1ccc2cc3c(=O)[nH]c(=O)nc-3n(-c3ccc(Oc4ccc(NC(=O)Oc5ccccc5)cc4)cc3)c2c1 [Example 118] | 0.795 ± 0.04 µM

Same assay, conditions: SUMO hTDP2cat 3.13 pM, substrate 0.25 μM, 25° C., 60 minutes; read-out: hTdp2 (Rec) IC50

IC50 | SMILES
0.00385 ± 0.00037 µM | O=c1nc2n(-c3ccc(Oc4cccc(B(O)O)c4)cc3)c3cc(Cl)ccc3cc-2c(=O)[nH]1 [Example 143, (3-(4-(8-Chloro-2,4-dioxo-3,4-dihydropyrimido[4,5-b]quinolin-10(2H)yl)phenoxy)phenyl) boronic acid]
0.039 ± 0.003 µM | N#Cc1ccc2cc3c(=O)[nH]c(=O)nc-3n(-c3ccc(OCc4cccc(B(O)O)c4)cc3)c2c1 [Example 123, (3-((4-(8-Cyano-2,4-dioxo-3,4-dihydropyrimido [4,5-b]quinolin-10(2H)-yl)phenoxy)methyl)phenyl) boronic acid]
0.00828 ± 0.00044 µM | CC1(C)OB(c2cccc(Oc3ccc(-n4c5nc(=O)[nH]c(=O)c-5cc5ccc(C#N)cc54)cc3)c2)OC1(C)C [Example 119, 2,4-Dioxo-10-(4-(3-(4,4,5,5-tetramethyl-1,3,2-dioxaborolan-2-yl)phenoxy)phenyl)-2,3,4,10-tetrahydropyrimido[4,5-b]quinoline-8-carbonitrile]
0.00501 ± 0.00069 µM | N#Cc1ccc2cc3c(=O)[nH]c(=O)nc-3n(-c3ccc(Oc4cccc(B(O)O)c4)cc3)c2c1 [Example 120, (3-(4-(8-Cyano-2,4-dioxo-3,4-dihydropyrimido[4,5-b]quinolin-10(2H)-yl)phenoxy)phenyl) boronic acid]
0.047 ± 0.004 µM | CC1(C)OB(c2cccc(COc3ccc(-n4c5nc(=O)[nH]c(=O)c-5cc5ccc(C#N)cc54)cc3)c2)OC1(C)C [Example 121, 2,4-Dioxo-10-(4-((3-(4,4,5,5-tetramethyl-1,3,2-dioxaborolan-2-yl)benzyl)oxy)phenyl)-2,3,4,10-tetrahydropyrimido[4,5-b]quinoline-8-carbonitrile]
0.359 ± 0.032 µM | CC1(C)OB(c2ccc(COc3ccc(-n4c5nc(=O)[nH]c(=O)c-5cc5ccc(C#N)cc54)cc3)cc2)OC1(C)C [Example 122, 2,4-Dioxo-10-(4-((4-(4,4,5,5-tetramethyl-1,3,2-dioxaborolan-2-yl)benzyl)oxy)phenyl)-2,3,41,10-tetrahydropyrimido[4,5-b]quinoline-8-carbonitrile]
0.239 ± 0.018 µM | N#Cc1ccc2cc3c(=O)[nH]c(=O)nc-3n(-c3ccc(OCc4ccc(B(O)O)cc4)cc3)c2c1 [Example 124, (4-((4-(8-Cyano-2,4-dioxo-3,4-dihydropyrimido [4,5-b]quinolin-10(2H)-yl)phenoxy)methyl)phenyl) boronic acid]

Test system: DT40 lymphoma cells
Assay: not given
Settings: in cancer cells, at 50 μM of compound 5-I; sensitizing effect; cited from earlier work

SMILES | maximal efficacy, cell viability
N#Cc1ccc2cc3c(=O)[nH]c(=O)nc-3n(-c3cccc(-c4nnn[nH]4)c3)c2c1 [compound 5-I] | around 10%
